Broadly, the IC50 is the point on the concentration scale where inhibition reaches its midpoint.

The text below walks through data of patent US20230053152A1, “Novel Quercetin Redox Derivative And Use Thereof As BET Inhibitor” (Benobio Co., Ltd., priority 2019, published 2023).

The target of one assay is T1, BRD2 (BD1) (Homo sapiens, UniProt P25440).
T1 construct: 100 nM GST-BRD2 (BD1, BD2, BD1+BD2)
Kind of assay: AlphaScreen binding inhibition of GST-BRD2 (BD1) and tetraacetylated histone H4 peptide. To be noted: for IC50: AlphaScreen, acetyl-histone H4 peptide. In general terms: Alpha assays give light when donor and acceptor beads are brought close together.

A further assay addresses T2, BRD4 (BD1 + BD2) (Homo sapiens, UniProt O60885).
T2 construct: on the BRD4 (BD1, BD2, BD1+BD2) protein; GST
As to the kind of experiment: Binding inhibition of BRD4 (BD1+BD2), same manner as Test Example 1. To be noted: AlphaScreen, acetyl-histone H4 peptide.

A further assay has as its target T3, BRD2 (BD1 + BD2) (Homo sapiens, UniProt P25440).
T3 construct: 100 nM GST-BRD2 (BD1, BD2, BD1+BD2)
As to the kind of experiment: AlphaScreen binding inhibition of GST-BRD2 (BD1+BD2) and tetraacetylated histone H4 peptide.

Another assay deals with T4, BRD3 (BD1 + BD2) (Homo sapiens, UniProt Q15059).
T4 construct: on the BRD3 (BD1, BD2, BD1+BD2) protein; GST
Kind of assay: Binding inhibition of BRD3 (BD1+BD2), same manner as Test Example 1. The note with it: AlphaScreen, acetyl-histone H4 peptide.

A further assay has as its target T5, BRD4 (BD1) (Homo sapiens, UniProt O60885).
T5 construct: on the BRD4 (BD1, BD2, BD1+BD2) protein; GST
As to the kind of experiment: Binding inhibition of BRD4 (BD1), same manner as Test Example 1. To be noted: AlphaScreen, acetyl-histone H4 peptide.

Another assay addresses T6, BRD3 (BD1) (Homo sapiens, UniProt Q15059).
T6 construct: on the BRD3 (BD1, BD2, BD1+BD2) protein; GST
Kind of assay: Binding inhibition of BRD3 (BD1), same manner as Test Example 1. To be noted: AlphaScreen, acetyl-histone H4 peptide.

For another assay, the target named is T7, BRD2 (BD2) (Homo sapiens, UniProt P25440).
T7 construct: 100 nM GST-BRD2 (BD1, BD2, BD1+BD2)
Kind of assay: AlphaScreen binding inhibition of GST-BRD2 (BD2) and tetraacetylated histone H4 peptide. To be noted: acetyl-histone H4 peptide.

The next assay has as its target T8, BRD3 (BD2) (Homo sapiens, UniProt Q15059).
T8 construct: on the BRD3 (BD1, BD2, BD1+BD2) protein; GST
Kind of assay: Binding inhibition of BRD3 (BD2), same manner as Test Example 1. The note with it: AlphaScreen, acetyl-histone H4 peptide.

Structures are written as SMILES. Bounds are passed on as bounds.

T6 sequence (Q15059 34-140 limits assumed): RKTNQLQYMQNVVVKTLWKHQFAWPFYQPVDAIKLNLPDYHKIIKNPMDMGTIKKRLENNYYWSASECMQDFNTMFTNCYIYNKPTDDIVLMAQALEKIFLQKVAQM
T1 sequence (P25440 74-180 limits assumed): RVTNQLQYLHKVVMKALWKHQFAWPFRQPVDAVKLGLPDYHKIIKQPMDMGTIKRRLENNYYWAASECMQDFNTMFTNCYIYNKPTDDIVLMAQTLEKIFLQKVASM
T7 sequence (P25440 344-453 limits assumed): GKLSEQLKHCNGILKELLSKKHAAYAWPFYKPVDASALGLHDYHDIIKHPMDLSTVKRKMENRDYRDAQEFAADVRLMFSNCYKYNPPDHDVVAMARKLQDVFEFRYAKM
T4 sequence (Q15059 34-415 limits assumed): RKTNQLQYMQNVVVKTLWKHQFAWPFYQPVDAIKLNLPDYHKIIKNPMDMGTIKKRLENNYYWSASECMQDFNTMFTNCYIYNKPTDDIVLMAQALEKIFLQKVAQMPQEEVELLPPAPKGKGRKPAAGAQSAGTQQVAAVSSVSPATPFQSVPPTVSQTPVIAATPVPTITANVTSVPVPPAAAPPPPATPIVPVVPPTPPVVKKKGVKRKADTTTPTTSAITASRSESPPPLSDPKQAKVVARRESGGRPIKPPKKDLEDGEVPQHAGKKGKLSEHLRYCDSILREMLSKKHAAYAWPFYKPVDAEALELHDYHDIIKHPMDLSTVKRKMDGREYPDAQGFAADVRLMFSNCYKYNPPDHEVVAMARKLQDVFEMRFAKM
T3 sequence (P25440 74-453 limits assumed): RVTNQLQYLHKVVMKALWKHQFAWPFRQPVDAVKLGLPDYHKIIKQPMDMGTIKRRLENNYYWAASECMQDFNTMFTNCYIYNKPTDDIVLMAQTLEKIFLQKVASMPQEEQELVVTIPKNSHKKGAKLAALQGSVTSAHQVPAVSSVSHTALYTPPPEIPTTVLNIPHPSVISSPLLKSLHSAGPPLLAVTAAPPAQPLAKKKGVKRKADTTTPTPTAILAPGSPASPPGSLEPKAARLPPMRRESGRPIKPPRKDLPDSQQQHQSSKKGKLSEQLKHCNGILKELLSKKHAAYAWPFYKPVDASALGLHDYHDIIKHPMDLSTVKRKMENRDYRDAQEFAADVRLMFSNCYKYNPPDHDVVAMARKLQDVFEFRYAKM
T8 sequence (Q15059 306-415 limits assumed): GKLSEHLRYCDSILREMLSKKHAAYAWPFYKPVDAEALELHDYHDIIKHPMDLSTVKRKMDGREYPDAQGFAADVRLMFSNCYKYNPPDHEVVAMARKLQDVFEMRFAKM

Turning to `O=c1c(O)c(-c2ccc(O)c(O)c2)oc2cccc(O)c12` [BBC0104, 2-(3,4-dihydroxyphenyl)-3,5-dihydroxy-chromen-4-one], the IC50 on BRD2 (BD1) came to 8.52 µM.

In turn, `O=c1c(O)c(-c2ccc(O)c(O)c2)oc2cc(O)ccc12` [BBC0105, 2-(3,4-dihydroxyphenyl)-3,7-dihydroxy-chromen-4-one] displayed a half-inhibitory concentration (IC50) at BRD2 (BD1) of 8.88 µM.

For `O=c1c(O)c(-c2ccc3[nH]cnc3c2)oc2cc(O)cc(O)c12` [BBC0109, 2-(1H-benzodiimidazol-5-yl)-3,5,7-trihydroxy-4H-chromen-4-one], the IC50 stood at 15.6 µM at BRD4 (BD1 + BD2); 8.63 µM on BRD2 (BD1); 9.7 µM at BRD2 (BD1 + BD2) (AlphaScreen, acetyl-histone H4 peptide); 20.8 µM on BRD3 (BD1 + BD2). The “IC50 value of BRD2 (BD1) as compared to the compound of Comparative Example 1” value on BRD2 (BD1) (relative to RVX-208) is recorded as “about 30%”. For the same compound, the “IC50 value of BRD2 (BD1+BD2) as compared to the compound of Comparative Example 1” value at BRD2 (BD1 + BD2) (relative to RVX-208) was “about 30%”.

As to `O=c1[nH]c2ccc(-c3oc4cc(O)cc(O)c4c(=O)c3O)cc2[nH]1` [BBC0110, 5-(3,5,7-trihydroxy-4-oxo-chromen-2-yl)-1,3-dihydrobenzimidazol-2-one], the IC50 was 38.6 µM at BRD4 (BD1 + BD2), 9.06 µM on BRD2 (BD1), 15.5 µM at BRD4 (BD1) and 20.1 µM at BRD3 (BD1 + BD2).

`O=c1[nH]c2ccc(-c3oc4cc(O)cc(O)c4c(=O)c3O)cc2o1` [BBC0113, 6-(3,5,7-trihydroxy-4-oxo-chromen-2-yl)-3H-1,3-benzoxazol-2-one]: the values for the IC50 on BRD3 (BD1), on BRD2 (BD1) and at BRD2 (BD2) were 17.1 µM, 12.2 µM and 5.11 µM, respectively.

For the compound `O=c1c(O)c(-c2ccc3[nH]ccc3c2)oc2cc(O)cc(O)c12` [BBC0114, 3,5,7-trihydroxy-2-(1H-indol-5-yl)chromen-4-one], the results for the IC50 on BRD3 (BD1), at BRD2 (BD1) and at BRD3 (BD1 + BD2) were 7.98 µM, 4.14 µM and 51.3 µM, respectively.

On to `O=c1c(O)c(-c2ccc3cc[nH]c3c2)oc2cc(O)cc(O)c12` [BBC0115, 3,5,7-trihydroxy-2-(1H-indol-6-yl)chromen-4-one], for which the half-inhibitory concentration (IC50) on BRD3 (BD1) was 7.18 µM; on BRD2 (BD1) it was 5.24 µM; at BRD3 (BD1 + BD2) it was 86 µM.

As to `COc1cc(OC)c2c(=O)[nH]c(-c3cc(C)c(OCCO)c(C)c3)cc2c1` [BBC0204, reference compound], the IC50 on BRD4 (BD1 + BD2) came to 97.2 µM; on BRD4 (BD1) it was 35.1 µM.

For the compound `COc1cc(OC)c2[nH]c(-c3cc(C)c(OCCO)c(C)c3)nc2c1` [BBC0206, reference compound], the IC50 on BRD4 (BD1 + BD2) was above 20 µM; on BRD4 (BD1), above 50 µM.

Turning to `O=c1c(O)c(-c2ccc(OC3COC3)c(O)c2)oc2cc(O)cc(O)c12` [BBC0301, 3,5,7-trihydroxy-2-[13-hydroxy-4-(oxetan-3-yloxy)phenyl]chromen-4-one], the IC50 amounted to 30.3 µM at BRD4 (BD1 + BD2), 16.9 µM on BRD2 (BD1) and 29.4 µM at BRD3 (BD1 + BD2).

`O=c1c(O)c(-c2ccc(OC3COC3)cc2)oc2cc(O)cc(O)c12` [BBC0302, 3,5,7-trihydroxy-2-[4-(oxetan-3-yloxy)phenyl]chromen-4-one] came in with a half-maximal inhibitory concentration (IC50) at BRD2 (BD1) of 2.4 µM.

For the compound `O=c1c(O)c(-c2ccc(O)c(OC3COC3)c2)oc2cc(O)cc(O)c12` [BBC0303, 3,5,7-trihydroxy-2-[4-hydroxy-3-(oxetan-3-yloxy)phenyl]chromen-4-one], the IC50 worked out at 3.18 µM at BRD3 (BD1), 8.35 µM at BRD2 (BD1) and 95.6 µM on BRD3 (BD1 + BD2).

With `Cc1cc(-c2oc3cc(O)cc(O)c3c(=O)c2O)cc(O)c1OC1COC1` [BBC0305, 3,5,7-trihydroxy-2-[3-hydroxy-5-methyl-4-(oxetan-3-yloxy)phenyl]chromen-4-one], the IC50 at BRD3 (BD1) turned out to be 3 µM; at BRD2 (BD1) it was 6.55 µM.

Regarding `Cc1cc(-c2oc3cc(O)cc(O)c3c(=O)c2O)cc(C)c1OC1COC1` [BBC0306, 2-[3,5-dimethyl-4-(oxetan-3-yloxy)phenyl]-3,5,7-trihydroxy-chromen-4-one], the figures for the IC50 at BRD3 (BD1), on BRD2 (BD1) and on BRD3 (BD2) were 1.41 µM, 2.71 µM and 1.34 µM, respectively.

Consider `Cc1cc(-c2oc3cc(O)cc(O)c3c(=O)c2O)cc(OC2COC2)c1O` [BBC0307], for which the figures for the IC50 at BRD4 (BD1 + BD2), on BRD3 (BD1) and at BRD2 (BD1) were 87.3 µM, 9.29 µM and 18.5 µM, respectively.

As to `O=c1c(O)c(-c2ccc3c(c2)CCCO3)oc2cc(O)cc(O)c12` [BBC0309], the values for the IC50 at BRD3 (BD1) and at BRD2 (BD1) were 1.46 µM and 7.03 µM, respectively.

Consider `O=c1c(O)c(-c2ccc3occc3c2)oc2cc(O)cc(O)c12` [BBC0310, 2-(benzofuran-5-yl)-3,5,7-trihydroxy-chromen-4-one], for which the figures for the IC50 on BRD3 (BD1) and at BRD2 (BD1) were 3.26 µM and 10.1 µM, respectively.

Regarding `O=c1c(O)c(-c2ccc3c(c2)CCO3)oc2cc(O)cc(O)c12` [BBC0311, 2-(2,3-dihydrobenzofuran-5-yl)-3,5,7-trihydroxy-chromen-4-one], the IC50 at BRD3 (BD1) is 7.2 µM; on BRD2 (BD1), 5.85 µM; at BRD2 (BD2) it was 3.79 µM.

Consider `O=c1c(O)c(-c2ccc3c(c2)OCC3)oc2cc(O)cc(O)c12` [BBC0312, 2-(2,3-dihydrobenzofuran-6-yl)-3,5,7-trihydroxy-chromen-4-one], for which the IC50 was found to be 2.64 µM at BRD3 (BD1) and 3.69 µM at BRD2 (BD1).

As for `O=c1c(O)c(-c2ccc3ccoc3c2)oc2cc(O)cc(O)c12` [BBC0313, 2-(benzofuran-6-yl)-3,5,7-trihydroxy-chromen-4-one], the IC50 came out at 1.9 µM on BRD3 (BD1), 4.63 µM on BRD2 (BD1) and 0.499 µM at BRD2 (BD2).

As for `COc1cc(OC)c2c(=O)[nH]c(-c3cc(C)c4c(c3)CCO4)nc2c1` [BBC0406, 5,7-dimethoxy-2-(7-methyl-2,3-dihydrobenzofuran-5-yl)-3H-quinazolin-4-one], the IC50 at BRD3 (BD1) amounted to 11.1 µM.
